Assays:
[1] = tested on: composite Cel-L-AChR with Ode-ACR-8 (29/38/63/L1 + Ode-ACR-8); parameters: species or system Xenopus laevis oocytes; conditions: Imax as % of 100 uM ACh response; agonist
[2] = biological target: T1, composite Cel-L-AChR with Hco-UNC-38 (29/63/L1/L8 + Hco-UNC-38); assay: two-electrode voltage clamp, Xenopus oocytes; type: cell-based, Caenorhabditis elegans; Haemonchus contortus; conditions: read-out: Lev EC50; agonist; responses normalized to 100 μM ACh
T1 construct: mixed-species complex of whole subunits; cRNA in Xenopus laevis oocytes with ancillary RIC-3, UNC-50, UNC-74; Cel-UNC-38 replaced by H. contortus UNC-38

[3] = tested on: composite Cel-L-AChR with Hco-UNC-38 (29/63/L1/L8 + Hco-UNC-38); parameters: species or system Xenopus laevis oocytes; conditions: Imax as % of 100 uM ACh response; agonist
[4] = biological target: T2, Cel-L-AChR (29/38/63/L1 + Cel-LEV-8); assay: two-electrode voltage clamp, Xenopus oocytes; type: cell-based, Caenorhabditis elegans; conditions: partial agonist; responses normalized to 100 μM ACh
T2 construct: gene unc-38; full-length subunits from cRNA in Xenopus laevis oocytes with ancillary C. elegans RIC-3, UNC-50, UNC-74; heteropentamer
T2 sequence (Q23022 17-511): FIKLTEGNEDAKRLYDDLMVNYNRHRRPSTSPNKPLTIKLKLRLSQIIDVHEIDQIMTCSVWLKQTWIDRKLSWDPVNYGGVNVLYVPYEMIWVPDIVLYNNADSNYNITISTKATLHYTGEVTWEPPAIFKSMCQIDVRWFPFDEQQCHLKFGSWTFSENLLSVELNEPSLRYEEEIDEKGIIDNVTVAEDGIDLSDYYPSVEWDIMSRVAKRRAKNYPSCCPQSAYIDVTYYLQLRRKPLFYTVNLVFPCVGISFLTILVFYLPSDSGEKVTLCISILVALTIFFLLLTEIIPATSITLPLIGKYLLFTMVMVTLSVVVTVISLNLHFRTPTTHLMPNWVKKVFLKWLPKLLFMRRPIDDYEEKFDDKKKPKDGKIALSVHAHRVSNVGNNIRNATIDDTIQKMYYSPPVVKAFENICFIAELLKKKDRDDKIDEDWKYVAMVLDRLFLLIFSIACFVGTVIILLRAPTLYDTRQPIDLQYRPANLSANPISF
T2 sequence (Q9N587 24-502, further chain): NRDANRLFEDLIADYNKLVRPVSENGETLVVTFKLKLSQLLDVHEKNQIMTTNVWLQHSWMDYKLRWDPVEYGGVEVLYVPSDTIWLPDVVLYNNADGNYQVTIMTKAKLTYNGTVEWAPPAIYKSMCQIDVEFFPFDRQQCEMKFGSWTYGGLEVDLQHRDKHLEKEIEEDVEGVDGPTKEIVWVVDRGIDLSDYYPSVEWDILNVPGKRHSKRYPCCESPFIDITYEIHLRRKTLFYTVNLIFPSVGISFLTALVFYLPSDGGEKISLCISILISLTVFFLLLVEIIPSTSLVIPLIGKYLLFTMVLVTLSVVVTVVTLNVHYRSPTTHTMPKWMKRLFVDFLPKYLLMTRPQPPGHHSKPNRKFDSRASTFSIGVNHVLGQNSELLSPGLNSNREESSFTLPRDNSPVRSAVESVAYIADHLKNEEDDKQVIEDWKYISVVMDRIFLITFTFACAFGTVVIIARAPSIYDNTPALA
T2 sequence (P48181 27-493, further chain): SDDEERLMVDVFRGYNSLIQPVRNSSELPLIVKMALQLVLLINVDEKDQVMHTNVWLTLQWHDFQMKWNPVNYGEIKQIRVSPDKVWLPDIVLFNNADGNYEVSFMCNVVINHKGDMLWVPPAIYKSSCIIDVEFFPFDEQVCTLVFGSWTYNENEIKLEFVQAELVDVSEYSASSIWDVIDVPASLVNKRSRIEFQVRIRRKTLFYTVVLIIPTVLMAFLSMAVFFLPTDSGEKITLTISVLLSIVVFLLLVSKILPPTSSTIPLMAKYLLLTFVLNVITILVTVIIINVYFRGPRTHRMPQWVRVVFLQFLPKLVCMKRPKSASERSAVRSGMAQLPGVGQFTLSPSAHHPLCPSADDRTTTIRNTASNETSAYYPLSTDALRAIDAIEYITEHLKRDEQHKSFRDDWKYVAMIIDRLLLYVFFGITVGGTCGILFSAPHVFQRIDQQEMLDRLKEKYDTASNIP
T2 sequence (Q27218 32-507, further chain): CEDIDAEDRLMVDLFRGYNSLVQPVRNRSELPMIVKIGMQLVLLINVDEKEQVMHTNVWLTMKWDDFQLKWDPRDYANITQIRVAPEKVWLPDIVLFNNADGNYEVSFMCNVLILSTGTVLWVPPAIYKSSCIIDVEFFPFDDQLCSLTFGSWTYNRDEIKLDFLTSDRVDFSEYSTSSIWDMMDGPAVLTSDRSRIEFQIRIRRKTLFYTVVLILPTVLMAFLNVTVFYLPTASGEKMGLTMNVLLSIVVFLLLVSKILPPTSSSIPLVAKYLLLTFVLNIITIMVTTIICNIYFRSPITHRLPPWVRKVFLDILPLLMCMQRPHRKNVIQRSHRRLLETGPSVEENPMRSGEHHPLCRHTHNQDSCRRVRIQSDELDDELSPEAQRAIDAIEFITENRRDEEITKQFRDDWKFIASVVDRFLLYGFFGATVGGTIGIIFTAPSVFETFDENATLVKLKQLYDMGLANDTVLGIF
T2 sequence (Q93329 26-531, further chain): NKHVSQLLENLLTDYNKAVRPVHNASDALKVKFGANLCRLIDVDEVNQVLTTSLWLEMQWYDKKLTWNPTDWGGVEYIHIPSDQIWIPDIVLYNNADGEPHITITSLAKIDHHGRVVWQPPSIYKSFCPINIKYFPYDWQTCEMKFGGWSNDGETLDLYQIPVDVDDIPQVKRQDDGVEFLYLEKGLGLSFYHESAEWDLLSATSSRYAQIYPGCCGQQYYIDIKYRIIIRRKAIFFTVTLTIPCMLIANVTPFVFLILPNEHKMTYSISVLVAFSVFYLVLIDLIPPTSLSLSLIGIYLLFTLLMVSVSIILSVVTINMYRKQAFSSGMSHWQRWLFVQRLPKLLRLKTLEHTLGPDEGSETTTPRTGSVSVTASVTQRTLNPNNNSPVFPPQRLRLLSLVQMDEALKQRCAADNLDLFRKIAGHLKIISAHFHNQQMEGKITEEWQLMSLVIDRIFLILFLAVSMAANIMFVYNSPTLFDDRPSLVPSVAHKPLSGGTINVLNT

[5] = biological target: T3, composite Cel-L-AChR with Min-ACR-8 (29/38/63/L1 + Min-ACR-8); assay: two-electrode voltage clamp, Xenopus oocytes; type: cell-based, Caenorhabditis elegans; Meloidogyne incognita; conditions: agonist; responses normalized to 100 μM ACh; read-out: Lev EC50
T3 construct: mixed-species complex of whole subunits; cRNA in Xenopus laevis oocytes with C. elegans RIC-3, UNC-50, UNC-74; LEV-8 replaced by M. incognita ACR-8
T3 sequence (A0A2I6TEK4 19-527): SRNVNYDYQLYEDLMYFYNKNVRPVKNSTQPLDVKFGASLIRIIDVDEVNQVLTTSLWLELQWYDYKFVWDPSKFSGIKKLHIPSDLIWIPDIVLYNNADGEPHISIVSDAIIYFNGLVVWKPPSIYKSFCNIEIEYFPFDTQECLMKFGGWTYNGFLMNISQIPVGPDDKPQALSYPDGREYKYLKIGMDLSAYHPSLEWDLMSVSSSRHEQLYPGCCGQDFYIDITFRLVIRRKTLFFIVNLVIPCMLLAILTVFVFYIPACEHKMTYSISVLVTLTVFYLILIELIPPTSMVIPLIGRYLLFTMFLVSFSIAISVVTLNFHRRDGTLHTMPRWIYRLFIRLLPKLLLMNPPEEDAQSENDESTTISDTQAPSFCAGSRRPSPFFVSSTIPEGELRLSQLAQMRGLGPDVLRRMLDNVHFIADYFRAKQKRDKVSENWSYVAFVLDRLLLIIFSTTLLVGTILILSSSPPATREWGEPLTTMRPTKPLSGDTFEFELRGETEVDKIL
T3 sequence (Q23022 17-511, further chain): as the sequence (Q23022 17-511) above
T3 sequence (Q9N587 24-502, further chain): as the sequence (Q9N587 24-502, further chain) above
T3 sequence (P48181 27-493, further chain): as the sequence (P48181 27-493, further chain) above
T3 sequence (Q27218 32-507, further chain): as the sequence (Q27218 32-507, further chain) above

[6] = biological target: T4, composite Cel-L-AChR with Hco-ACR-8 (29/38/63/L1 + Hco-ACR-8); assay: two-electrode voltage clamp, Xenopus oocytes; type: cell-based, Caenorhabditis elegans; Haemonchus contortus; conditions: read-out: Lev EC50; full agonist; responses normalized to 100 μM ACh
T4 construct: mixed-species complex of whole subunits; cRNA in Xenopus laevis oocytes with C. elegans RIC-3, UNC-50, UNC-74; LEV-8 replaced by H. contortus ACR-8

[7] = biological target: T5, composite Cel-L-AChR with Hco-UNC-63 (29/38/L1/L8 + Hco-UNC-63); assay: two-electrode voltage clamp, Xenopus oocytes; type: cell-based, Caenorhabditis elegans; Haemonchus contortus; conditions: read-out: Lev EC50; agonist; responses normalized to 100 μM ACh
T5 construct: mixed-species complex of whole subunits; cRNA in Xenopus laevis oocytes with ancillary RIC-3, UNC-50, UNC-74; Cel-UNC-63 replaced by H. contortus UNC-63
T5 sequence (D6MYF4 22-504): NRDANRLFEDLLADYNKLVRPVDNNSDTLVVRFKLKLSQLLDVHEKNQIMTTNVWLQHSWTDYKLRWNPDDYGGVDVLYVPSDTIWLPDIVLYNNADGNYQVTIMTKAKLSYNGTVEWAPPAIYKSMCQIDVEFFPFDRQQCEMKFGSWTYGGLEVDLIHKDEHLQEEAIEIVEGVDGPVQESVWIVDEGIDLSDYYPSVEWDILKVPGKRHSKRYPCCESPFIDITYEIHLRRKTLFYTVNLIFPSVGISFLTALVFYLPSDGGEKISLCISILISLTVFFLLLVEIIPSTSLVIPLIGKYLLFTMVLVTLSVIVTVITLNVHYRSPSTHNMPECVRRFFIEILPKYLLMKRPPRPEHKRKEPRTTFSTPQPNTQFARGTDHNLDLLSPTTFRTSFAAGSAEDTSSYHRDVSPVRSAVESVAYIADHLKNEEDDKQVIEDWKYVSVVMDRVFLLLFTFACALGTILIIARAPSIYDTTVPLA
T5 sequence (Q23022 17-511, further chain): as the sequence (Q23022 17-511) above
T5 sequence (P48181 27-493, further chain): as the sequence (P48181 27-493, further chain) above
T5 sequence (Q27218 32-507, further chain): as the sequence (Q27218 32-507, further chain) above
T5 sequence (Q93329 26-531, further chain): as the sequence (Q93329 26-531, further chain) above

[8] = biological target: T6, composite Cel-L-AChR with Asu-ACR-8 (29/38/63/L1 + Asu-ACR-8); assay: two-electrode voltage clamp, Xenopus oocytes; type: cell-based, Caenorhabditis elegans; Ascaris suum; conditions: read-out: Lev EC50; agonist; responses normalized to 100 μM ACh
T6 construct: mixed-species complex of whole subunits; cRNA in Xenopus laevis oocytes with C. elegans RIC-3, UNC-50, UNC-74; LEV-8 replaced by A. suum ACR-8
T6 sequence (A0A2I6TEN1 25-521): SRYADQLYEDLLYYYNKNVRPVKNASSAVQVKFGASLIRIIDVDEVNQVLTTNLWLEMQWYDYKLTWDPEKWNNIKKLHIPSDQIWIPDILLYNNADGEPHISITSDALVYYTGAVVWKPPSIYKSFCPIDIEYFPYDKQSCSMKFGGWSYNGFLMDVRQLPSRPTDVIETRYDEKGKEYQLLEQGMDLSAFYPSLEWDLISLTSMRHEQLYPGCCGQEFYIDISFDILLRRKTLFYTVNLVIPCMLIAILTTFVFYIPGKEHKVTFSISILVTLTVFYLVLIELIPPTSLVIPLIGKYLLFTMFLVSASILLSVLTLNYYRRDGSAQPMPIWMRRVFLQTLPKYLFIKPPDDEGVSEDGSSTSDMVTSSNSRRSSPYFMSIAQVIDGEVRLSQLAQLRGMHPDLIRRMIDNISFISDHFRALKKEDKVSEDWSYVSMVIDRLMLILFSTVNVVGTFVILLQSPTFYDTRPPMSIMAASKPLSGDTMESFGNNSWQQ
T6 sequence (Q23022 17-511, further chain): as the sequence (Q23022 17-511) above
T6 sequence (Q9N587 24-502, further chain): as the sequence (Q9N587 24-502, further chain) above
T6 sequence (P48181 27-493, further chain): as the sequence (P48181 27-493, further chain) above
T6 sequence (Q27218 32-507, further chain): as the sequence (Q27218 32-507, further chain) above

[9] = tested on: composite Cel-L-AChR with Hco-ACR-8 (29/38/63/L1 + Hco-ACR-8); parameters: species or system Xenopus laevis oocytes; conditions: Imax as % of 100 uM ACh response; agonist
[10] = biological target: T7, composite Cel-L-AChR with Ode-ACR-8 (29/38/63/L1 + Ode-ACR-8); assay: two-electrode voltage clamp, Xenopus oocytes; type: cell-based, Caenorhabditis elegans; Oesophagostomum dentatum; conditions: read-out: Lev EC50; full agonist; responses normalized to 100 μM ACh
T7 construct: mixed-species complex of whole subunits; cRNA in Xenopus laevis oocytes with C. elegans RIC-3, UNC-50, UNC-74; LEV-8 replaced by O. dentatum ACR-8

[11] = tested on: T6, composite Cel-L-AChR with Asu-ACR-8 (29/38/63/L1 + Asu-ACR-8); parameters: species or system Xenopus laevis oocytes; Agonist-evoked currents in cRNA-injected oocytes, concentration-response normalized to 100 uM ACh; conditions: Imax as % of 100 uM ACh response; agonist
From the text: (§1) The C. elegans L-AChR can be robustly expressed in Xenopus oocytes by co-expressing cRNAs from the five L-AChR subunits (UNC-38, UNC-63, UNC-29, LEV-1 and LEV-8) in combination with cRNA encoding three ancillary proteins (UNC-74, UNC-50 and RIC-3). Noticeably, the absence of any one of these AChR subunits or ancillary proteins from the injected cRNA mix leads to the loss of expression of functional receptor highlighting their major individual requirement. Taking advantage of this, we complemented the Cel-L-AChR by replacing the Cel-LEV-8 by ACR-8 subunits from distinct parasitic nematode species. As a preliminary set of experiments, cRNAs encoding ACR-8 from parasitic nematodes were micro-injected with the three ancillary proteins in order to test their ability to form a homomeric channel. […] Therefore, cRNAs encoding Cel-UNC-38, Cel-UNC-63, Cel-UNC-29, Cel-LEV-1, Cel-UNC-74, Cel-UNC-50 and Cel-RIC-3 in combination with either Hco-ACR-8 / Ode-ACR-8 / Asu-ACR-8 / Dim-ACR-8 / Min-ACR-8 were co-injected into Xenopus oocytes. Three days after injection, each of these combinations produced robust responses to 100μM ACh in oocytes (S3 Fig). Similarly, application of 100μM levamisole (Lev) elicited a response for all complemented Cel-L-AChRs. Dose response curves were generated for both ACh and Lev in complemented L-AChRs containing ACR-8 subunits from parasitic species (Fig 2 and Table 1). In comparison to the C. elegans L-AChR, we observed a drastic reduction of the ACh EC50 values in the composite L-AChRs complemented with Hco-ACR-8, Ode-ACR-8, Asu-ACR-8 and Dim-ACR-8. […] A. Representation of the putative arrangement of the C. elegans L-AChR subunits expressed in Xenopus oocytes and dose-response relationships for ACh (red triangle, n = 8) and Lev (white circle, n = 8). B-F. Representation of the putative subunit arrangement of the composite C. elegans L-AChRs including Cel-UNC-29, Cel-UNC-38, Cel-UNC-63, Cel-LEV-1 and the ACR-8 subunit from a parasitic nematode species: H. contortus ACR-8 (B), O. dentatum ACR-8 (C), A. suum ACR-8 (D), D. immitis ACR-8 (E) and M. incognita ACR-8 (F). Dose-response relationships for ACh and Lev are indicated by red triangles (n = 5–11) and white circles (n = 4–9), respectively. G-H. Representation of the putative subunit arrangement of the composite C. elegans L-AChRs with Hco-UNC-38 replacing Cel-UNC-38 (G) or Hco-UNC-63 replacing Cel-UNC-63 (H). Dose-response relationships for ACh and Lev are indicated by red triangles (n = 7–10) and white circles (n = 7–9), respectively. All responses are normalized to 100μM ACh. Results are shown as the mean ± se. […]

[12] = tested on: T3, composite Cel-L-AChR with Min-ACR-8 (29/38/63/L1 + Min-ACR-8); parameters: species or system Xenopus laevis oocytes; Agonist-evoked currents in cRNA-injected oocytes, concentration-response normalized to 100 uM ACh; conditions: Imax as % of 100 uM ACh response; agonist
From the text: as §1

[13] = tested on: T5, composite Cel-L-AChR with Hco-UNC-63 (29/38/L1/L8 + Hco-UNC-63); parameters: species or system Xenopus laevis oocytes; Agonist-evoked currents in cRNA-injected oocytes, concentration-response normalized to 100 uM ACh; conditions: Imax as % of 100 uM ACh response; agonist
From the text: as §1

[14] = tested on: T2, Cel-L-AChR (29/38/63/L1 + Cel-LEV-8); parameters: species or system Xenopus laevis oocytes; Agonist-evoked currents in cRNA-injected oocytes, concentration-response normalized to 100 uM ACh; conditions: Imax as % of 100 uM ACh response; agonist
From the text: as §1

c1ccc([C@H]2CN3CCSC3=N2)cc1 [levamisole]
Lev Imax [1]: 112.4 ±19.0% | EC50 [2]: 13.5 ± 1.5 µM | Lev Imax [3]: 51.1 ±4.5% | EC50 [4]: 6.4 ± 1.2 µM | EC50 [5]: 10.1 ± 1.1 µM | EC50 [6]: 2.7 ± 1.4 µM | EC50 [7]: 12.1 ± 1.2 µM | EC50 [8]: 5.8 ± 1.2 µM | Lev Imax [9]: 109.5 ±20.7% | EC50 [10]: 11.7 ± 1.3 µM | Lev Imax [11]: 51.6 ±7.0% | Lev Imax [12]: 33.9 ±13.9% | Lev Imax [13]: 55.9 ±9.4% | Lev Imax [14]: 49.1±10.2%

Source: article PMC5931475, “Deciphering the molecular determinants of cholinergic anthelmintic sensitivity in nematodes: When novel functional validation approaches highlight major differences between the model Caenorhabditis elegans and parasitic species” (PLoS Pathogens, 2018)
